This is an account of results in patent publication US6869788B2, “DNA encoding novel D-aminoacylase and process for producing D-amino acid by using the same” (Mitsui Chemicals, Inc., priority 2001, dated 2005).

B1: D-aminoacylase: the D-aminoacylase according to this invention, whose physical properties are listed; source strain not stated at that place (protein, listed as Methylobacterium mesophilicum)
chain: MTDSTRKHDLIIRGGTVIDGRRTPRFRADVAVRDGRLSAIGDLADHRAAQEIDATGRIVAPGFIDSHTHDDQAVLSQPQIPFKVSQGVTTVIAGNCGISAAPLRRDMDLPMPLNLIDVPAEERFTRFADYLDALRARPSSVNVAAMVGHSTLRAVTMPALDREANSEEIARMRALVQEAMDAGAIGVSTGTFYPPAVKATTEEIIEVCRPLTAAGGLYVTHMRDESDQVMTSLEETFRIGRALDVPVVVSHHKVQNTPNFGKSQVTLPFIREAMQRQRVCLDCYPYTAGSTMIRADRGMLEGRVLIAESLPHPECAGRDLDDIARDWGVDRVEAARRLQPGSAIYFLMDEGDVQRILAFDDTMIGSDGIPVGSKPHPRLWGTFPRVLGHYSRDVGLFPLETAVWKMTGLTARNFGLHGRGTLEAGQAADIVVFDAGTVRDAADYAEPTRPAEGIDAVIVNGAITWQGGQHTGARQGQVIRRQAAPSH

Tested on in one data set: not listed separately
The data set can be described thus: Physical properties of the D-aminoacylase (optimal pH, optimal temperature, thermal stability).
Settings: not given
The class given is physicochemical.
Consider B1, for which the Optimal temperature was 60° C.;.

Staying with this data set, now noted: after heating at 40° C. for 20 hours.
B1: the “Thermal stability: remaining activity” value was 80% remaining activity.

For a further data set, the system named is D-aminoacylase derived from Methylobacterium mesophilicum MT 10894 (FERM BP-7856). The data set can be described thus: Substrate specificity of E. coli transformed by the DNA containing the D-aminoacylase gene to N-acetyl-DL-amino acids. Format: biochemical. The settings on record: substrate 5 g/L, 40° C., 16 hours; activity with N-acetyl-DL-tryptophan as substrate = 100. On the procedure:
Reactivity and an optical purity were evaluated by analyzing a D-amino acid produced in a reaction and a remaining N-acylamino acid by high performance liquid chromatography (column: CROWNPAK CR(−); Daicel Chemical Industries, Ltd.); column temperature: 40° C.; mobile phase: HClO4 aq. pH 1.5 and 0 to 15% methanol (v/v); flow rate 0.8 mL/min, detection: 210 nm).
E. coli transformed by the plasmid shown in FIG. 1 in Example 7 was subject to shaking culture in an LB medium containing ampicillin (50 μg/mL) at 37° C. overnight. After culturing, the bacterial cells were harvested by centrifugation and washed with a 0.1 M phosphate buffer (pH 7.8). The bacterial cells were suspended in a 0.1 M phosphate buffer (pH 7.8).
Substrate specificity of E. coli transformed by the plasmid shown in FIG. 1 in Example 7 was compared for N-acetyl-DL-amino acids. In this example, the reaction was conducted at a substrate N-acetyl-DL-amino acid concentration of 5 g/L at 40° C. for 16 hours. Relative activities to a variety of N-acetyl-DL-amino acids together with optical purities and reaction yields were determined, assuming that D-aminoacylase activity was 100 when N-acetyl-DL-tryptophan was a substrate.
`CC(=O)NC(CCc1ccccc1)C(=O)O` (racemic) [N-acetyl-DL-homophenylalanine]: the “Relative activity (%)” value is 45%.

Take `CC(=O)NC(Cc1ccc(F)cc1)C(=O)O` (racemic) [N-acetyl-DL-4-fluorophenylalanine]: the “Relative activity (%)” value worked out at 99%.

As for `CC(=O)NC(Cc1c[nH]c2ccc(O)cc12)C(=O)O` (racemic) [N-acetyl-DL-5-hydroxytryptophan], the “Relative activity (%)” value turned out to be 80%.

Regarding `CC(=O)NC(Cc1ccc(O)cc1)C(=O)O` (racemic) [N-acetyl-DL-tyrosine], the “Relative activity (%)” value was found to be 67%.

In the case of `CC(=O)NC(Cc1ccc(Cl)cc1)C(=O)O` (racemic) [N-acetyl-DL-4-chlorophenylalanine], the “Relative activity (%)” value came out at 89%.

For `CC(=O)NC(Cc1c[nH]c2ccccc12)C(=O)O` (racemic) [N-acetyl-DL-tryptophan], the “Relative activity (%)” value is 100%.

`CC(=O)NC(Cc1ccccc1)C(=O)O` (racemic) [N-acetyl-DL-phenylalanine]: the “Relative activity (%)” value came to 104%.

On to `CC(=O)NC(COCc1ccccc1)C(=O)O` (racemic) [N-acetyl-DL-o-benzylserine], for which the “Relative activity (%)” value worked out at 30%.
